Test results taken from US11999727B2 (Tango Therapeutics, Inc., priority 2020, dated 2024).
pIC50: −log10 of the molar value.

Assays:
PRMT5 [1] = biological target: T1, PRMT5 (Homo sapiens, UniProt O14744); test: PRMT5 biochemical IC50 assay with SAM as cofactor; conditions: PRMT5, SAM as cofactor; read-out: SAM IC50
T1 construct: purchased Viva (custom protein)

PRMT5 [2] = biological target: T1, PRMT5; test: PRMT5 biochemical IC50 assay with no cofactor; conditions: PRMT5, no cofactor; read-out: No Cofactor/rel IC50
Excerpt: Table 1 indicates IC50 values (μM) against PRMT5 for exemplary compounds in the presence of SAM as cofactor, with no cofactor, and with MTA as cofactor, respectively (columns 4-6). […] Ki values can be calculated from the IC50 values as described in the Examples section. As detailed in the Examples section, for the assay performed in the presence of SAM, IC50=Ki×1.5 (Ki=IC50/1.5).

PRMT5 [3] = biological target: T1, PRMT5; test: PRMT5 biochemical IC50 assay with MTA as cofactor; conditions: PRMT5, MTA as cofactor; read-out: MTA IC50
[4] = test system: HAP1 MTAP-intact cell line; test: SDMA in-cell western assay, HAP1 MTAP-intact; format: cell-based; conditions: Homo sapiens, HAP1, SDMA in-cell western, HAP1 MTAP-intact; read-out: MTAP HAP1 intact IC50
In short: (§1)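 Compounds were tested in HAP1 cells differing only in MTAP status (endogenous expression versus null). Cellular SDMA levels were then measured by in-cell western, giving an IC50 in each background.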

[5] = test system: HAP1 MTAP-deleted cell line; test: SDMA in-cell western assay, HAP1 MTAP-deleted; format: cell-based; conditions: for pIC50: Homo sapiens, HAP1, SDMA in-cell western, HAP1 MTAP-deleted, read-out: HAP1 MTAP deleted IC50; for MTAP intact/deleted ratio: IC50 ratio HAP1 MTAP-intact / HAP1 MTAP-deleted, SDMA in-cell western
In short: as §1

[6] = test system: HAP1 MTAP-deleted cell line; test: Viability assay, MTAP-deleted cell line; format: cell-based; conditions: Homo sapiens, HAP1, viability assay, MTAP-deleted cell line; read-out: HAP1 MTAP deleted viability
Excerpt: Table 1 additionally indicates IC50 values in a viability assay for the MTAP-deleted cell line (column 10), indicating the effect of treatment with compound on cell survival.

T1 sequence (O14744 whole entry): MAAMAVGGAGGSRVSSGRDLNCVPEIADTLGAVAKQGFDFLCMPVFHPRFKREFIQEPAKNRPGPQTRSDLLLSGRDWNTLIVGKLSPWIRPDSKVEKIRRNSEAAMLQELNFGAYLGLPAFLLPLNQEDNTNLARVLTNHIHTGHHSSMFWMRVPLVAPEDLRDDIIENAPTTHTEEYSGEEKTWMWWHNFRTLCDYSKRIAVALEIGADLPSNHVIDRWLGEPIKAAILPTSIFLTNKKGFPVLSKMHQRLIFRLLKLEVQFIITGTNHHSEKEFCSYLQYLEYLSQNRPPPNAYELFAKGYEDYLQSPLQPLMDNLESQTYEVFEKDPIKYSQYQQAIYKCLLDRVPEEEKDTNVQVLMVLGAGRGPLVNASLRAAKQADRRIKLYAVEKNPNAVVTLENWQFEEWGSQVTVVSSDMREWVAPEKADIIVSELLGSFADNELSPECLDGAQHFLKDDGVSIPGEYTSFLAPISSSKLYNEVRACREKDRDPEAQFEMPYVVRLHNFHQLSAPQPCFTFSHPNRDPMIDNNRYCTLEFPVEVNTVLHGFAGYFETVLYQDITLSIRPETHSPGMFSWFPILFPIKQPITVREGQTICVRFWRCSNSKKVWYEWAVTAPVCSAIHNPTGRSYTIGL
T1 sequence (Q9BQA1 whole entry partner): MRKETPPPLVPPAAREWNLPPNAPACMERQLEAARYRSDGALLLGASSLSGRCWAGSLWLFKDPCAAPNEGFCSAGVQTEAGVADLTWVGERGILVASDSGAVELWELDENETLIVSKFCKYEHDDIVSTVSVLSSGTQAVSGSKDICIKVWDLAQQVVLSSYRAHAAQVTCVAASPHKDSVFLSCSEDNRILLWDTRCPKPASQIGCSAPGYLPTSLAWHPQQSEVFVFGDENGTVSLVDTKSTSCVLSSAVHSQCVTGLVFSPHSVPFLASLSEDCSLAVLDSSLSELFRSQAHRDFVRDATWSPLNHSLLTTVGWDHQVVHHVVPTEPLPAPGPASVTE

Row | pIC50 (PRMT5 [1]) | pIC50 (PRMT5 [2]) | pIC50 (PRMT5 [3]) | pIC50 [4] | pIC50 [5] | Structure (SMILES) | MTAP intact/deleted ratio [5] | pIC50 [6]
1 | < 6.30 | < 6.30 | < 6.30 | < 6.00 | < 6.00 | C[C@@H]1CC[C@@H](c2cccc(C(F)(F)F)c2)N(C(=O)C(=O)Nc2cncc(C(N)=O)c2)C1 (single isomer, unassigned) [Compound 510] | C (an IC50 ratio of less than 3 fold) | < 5.00
2 | 6.30 to 7.30 | 6.30 to 7.30 | > 7.30 | < 6.00 | 6.00 to 7.00 | C[C@H]1CC[C@H](c2ccc(C(F)(F)F)cc2)N(C(=O)C(=O)Nc2cncc(C(N)=O)c2)C1 (single isomer, unassigned) [Compound 511] | A (an IC50 ratio greater than or equal to 10 fold) | 5.00 to 6.00
3 | 6.30 to 7.30 | 6.30 to 7.30 | > 7.30 | < 6.00 | > 7.00 | C[C@H]1CC[C@H](c2ccc(F)c(Cl)c2)N(C(=O)C(=O)Nc2cncc(C(N)=O)c2)C1 (single isomer, unassigned) [Compound 512] | A (an IC50 ratio greater than or equal to 10 fold) | 5.00 to 6.00
4 | < 6.30 | < 6.30 | < 6.30 | < 6.00 | < 6.00 | C[C@@H]1CC[C@@H](c2ccc(F)c(Cl)c2)N(C(=O)C(=O)Nc2cncc(C(N)=O)c2)C1 (single isomer, unassigned) [Compound 513] | C (an IC50 ratio of less than 3 fold) | < 5.00
5 | < 6.30 | < 6.30 | < 6.30 | < 6.00 | < 6.00 | COc1ncc(NC(=O)C(=O)N2C[C@H](C)CC[C@H]2c2cncs2)cc1C(N)=O (single isomer, unassigned) [Compound 514] | C (an IC50 ratio of less than 3 fold) | < 5.00

More lines, now with the values behind:

Row | Structure (SMILES) | pIC50 (PRMT5 [1]) | pIC50 (PRMT5 [2]) | pIC50 (PRMT5 [3]) | pIC50 [4] | pIC50 [5] | MTAP intact/deleted ratio [5] | pIC50 [6]
6 | Cc1cc(NC(=O)C(=O)N2C[C@H](C)CC[C@H]2c2ccc3c(c2)CCCN3)cnc1N (single isomer, unassigned) [Compound 504] | 6.30 to 7.30 | > 7.30 | > 7.30 | 6.00 to 7.00 | > 7.00 | A (an IC50 ratio greater than or equal to 10 fold) | > 6.00
7 | Cc1cc(NC(=O)C(=O)N2C[C@@H](C)CC[C@@H]2c2ccc(NS(C)(=O)=O)cc2)cnc1N (single isomer, unassigned) [Compound 506] | < 6.30 | < 6.30 | < 6.30 | < 6.00 | < 6.00 | B (an IC50 ratio greater than or equal to 3 fold but lower than 10 fold) | < 5.00
8 | Cc1cc(NC(=O)C(=O)N2C[C@@H](C)CC[C@@H]2c2cccc(C(F)(F)F)c2)cnc1N (single isomer, unassigned) [Compound 507] | < 6.30 | < 6.30 | < 6.30 | < 6.00 | < 6.00 | C (an IC50 ratio of less than 3 fold) | < 5.00
9 | C[C@@H]1CC[C@@H](c2ccc(C(F)(F)F)cc2)N(C(=O)C(=O)Nc2cncc(C(N)=O)c2)C1 (single isomer, unassigned) [Compound 508] | < 6.30 | < 6.30 | < 6.30 | < 6.00 | < 6.00 | C (an IC50 ratio of less than 3 fold) | < 5.00
10 | C[C@H]1CC[C@H](c2cccc(C(F)(F)F)c2)N(C(=O)C(=O)Nc2cncc(C(N)=O)c2)C1 (single isomer, unassigned) [Compound 509] | 6.30 to 7.30 | 6.30 to 7.30 | > 7.30 | < 6.00 | > 7.00 | A (an IC50 ratio greater than or equal to 10 fold) | 5.00 to 6.00
